Patent US20160199434A1, “COMPOSITIONS AND METHODS FOR MODULATING DNA METHYLATION” (OHIO STATE INNOVATION FOUNDATION, priority 2013, published 2016)
“Also recorded” adds a separate entry of the source.

What was measured:
DNMT-1 [1] = assay: DNMT-1 mRNA expression by RT-PCR in MDA-MB-231 tumor cells; type: cell-based, human; settings: 25 μM, 24 hours, compared to DMSO (FIG. 1B)
Experimental: (§1) FIGS. 1A-1E show DNA methyltransferase mRNA expression in vitro and in vivo. […] PyMT tumor cells were left untreated, were treated with DMSO, or were treated with AKB-6899 (10, 25, or 50 μM) for 24 hours. The cells were subjected to Trizol extraction to recover total RNA. cDNA was synthesized for RT-PCR of DNMT-1 and DNMT-3a mRNA expression. […] Human MDA-MB-231 tumor cells were left untreated, were treated with DMSO, or were treated with AKB-6899 (25 μM) for 24 hours. Total RNA was isolated for RT-PCR. FIG. 1C (DNMT-1), FIG. 1D (DNMT-3a), and FIG. 1E (DNMT-3b) compare the effect of AKB-6899 with the effect of 5-aza-2′deoxycytidine (5-AZA) as assessed by RT-PCR in human cervical tumors implanted in mice that were either untreated (UTX), treated with DMSO, treated with 5-AZA, or treated with AKB-6899 (17.5 mg/kg).
(§2) To determine whether the decrease in DNMT expression and the increase in DSP expression were relevant in human cancer, the level of desmoplakin expression in MDA-MB-231 human triple negative breast cancer cells was determined. […] (FIG. 3B).

c-Myc promoter [2] = assay: Percent DNA methylation of c-Myc promoter in human cervical tumors in animals; type: in vivo; settings: animal models of human cervical tumors, 17.5 mg/kg (FIG. 7A)
Experimental: (§3) Animal models of human cervical tumors were untreated, treated with DMSO, treated with 5-AZA or treated with AKB-6899 (17.5 mg/kg).

DNMT-3a [3] = assay: DNMT-3a mRNA expression by RT-PCR in MDA-MB-231 tumor cells; type: cell-based, human; settings: 25 μM, 24 hours, compared to DMSO (FIG. 1B)
Experimental: as §1, §2

[4] = tested on: human A375 melanoma cells; assay: Tumor growth of human A375 melanoma cells implanted in SCID mice; type: in vivo, mouse; settings: 19 days after palpable tumor formation, AKB-6899 17.5 mg/kg, Docetaxel 30 mg/kg
Experimental: During treatment, tumor growth was determined. Animals were treated with one the following combinations: vehicle/vehicle, vehicle/AKB-6899 (17.5 mg/kg), Docetaxel (30 mg/kg)/vehicle, or Docetaxel/AKB-6899. 19 days after palpable tumor formation, the tumors in the mice receiving the vehicle/AKB-6899 combination had tumors that were 74% the size of control; the tumors in the mice receiving Docetaxel/vehicle combination had tumors that were 49% the size of control; and the tumors in the mice receiving the Docetaxel/AKB-6899 combination had tumors that were 13% the size of control.

c-Myc promoter [5] = assay: Percent CpG methylation of c-Myc promoter in HeLa cells; type: cell-based, human; settings: 5 or 25 μM, compared to DMSO and PBA (FIG. 6A)
Experimental: HeLa cervical cancer cells were left untreated, were treated with DMSO, were treated with 5-AZA, were treated with AKB-6899 (5 or 25 μM), or were treated with PBA (2 mM).

c-Myc = c-Myc expression (relative copy number) in human cervical tumors in animals; type: in vivo; settings: animal models of human cervical tumors, 17.5 mg/kg (FIG. 7B)
Experimental: as §3

DNMT-3a [6] = assay: DNMT-3a mRNA expression in lungs of normal mice after systemic administration; type: in vivo, mouse; settings: i.p. 17.5 mg/kg three times per week for three weeks, vs DMSO
Experimental: (§4) FIGS. 14A-14C show the effects of systemic administration of AKB-6899. Mice were treated three times per week for three weeks with either i.p. AKB-6899 or i.p. DMSO. The lungs were removed and assayed to determine DNMT mRNA expression, percent CpG methylation, and fold change in mRNA. […] The data was standardized to 1.0 by the DMSO levels of the respective gene expression, (n=4 lungs per condition).

[7] = tested on: panel of 14 common tumor suppressor genes; assay: mRNA expression of 14 tumor suppressor genes in A549 cells; type: cell-based, human; settings: for CDKN1C mRNA expression level: DMSO standardized to 1.0
From the text: FIGS. 12A-12D show the level of mRNA expression for a panel of 14 common tumor suppressor genes in two types of human lung cancer cells (i.e., H1703 squamous cell carcinoma in FIG. 12A and A549 adenocarcinoma in FIG. 12B). […] All of the tumor suppressor mRNAs were augmented in response to AKB-6899 but one, the CDKN1C gene in A549 adenocarcinoma cells, in which expression levels were 0.1 (AKB10) and 0.9 (AKB50) compared to DMSO standardized to 1.0. In FIGS. 12A-12B, the following apply: “1”=DMSO, “2”=AKB-6899 (10 μM), “3”=AKB-6899 (50 μM), and “4”=combination of Decitabine (5 μM)/PBA (2 mM). FIGS. 12C and 12D are raw values for mRNA expression of these 14 genes.

DNMT-1 [8] = assay: DNMT-1 mRNA expression by RT-PCR in PyMT tumor cells; type: cell-based, mouse; settings: for DNMT-1 mRNA expression: PyMT tumor cells, 24 hours, compared to DMSO (FIG. 1A)
Experimental: as §1
Because DSP is regulated by ER/PR expression, and because late-stage PyMT tumors lose ER/PR-positivity and heavily metastasize to the lymph nodes and lungs (Lin et al., 2003), the effects of AKB-6899 on more global events that regulate gene expression was evaluated. PyMT tumor cells in culture were treated with DMSO or AKB-6899. Methylation-specific PCR for CpG islands in the desmoplakin promoter were performed. […] Trypan Blue confirmed no cell death in AKB-6899 treated cells when compared to control cells. The experiment was repeated and RNA was isolated from the cells. RT-PCR was performed and the regulation of DNA methyltransferases (DNMTs) was evaluated. […] (FIG. 1A). The decrease in mRNA levels of DNMT-1 and DNMT-3a increased the mRNA level of DSP (FIG. 4A) and increased desmoplakin protein expression (FIG. 5A).

RASSF1 promoter = assay: CpG methylation of RASSF1 promoter in lungs of normal mice; type: in vivo, mouse; settings: i.p., three weeks (FIG. 14B)
Experimental: as §4

RASSF1 mRNA = RASSF1 mRNA expression in lungs of normal mice; type: in vivo, mouse; settings: i.p., three weeks (FIG. 14C)
Experimental: as §4

## O=C(O)CNC(=O)c1ncc(-c2cccc(F)c2)cc1O [AKB-6899, {[5-(3-Fluorophenyl)-3-hydroxypyridine-2-carbonyl]amino}acetic acid]
DNMT-1 [1]
  DNMT-1 mRNA expression: significantly decreased; also recorded: downregulated
c-Myc promoter [2]
  DNA methylation of c-Myc promoter: completely demethylated
DNMT-3a [3]
  DNMT-3a mRNA expression: significantly decreased; also recorded: downregulated
[4]
  tumor size relative to control: 74%
c-Myc promoter [5]
  demethylation of c-Myc promoter (percent CpG methylation): increase in demethylation
c-Myc
  c-Myc expression: inhibited
DNMT-3a [6]
  DNMT-3a expression in lungs: inhibited
[7]; A549, 10 μM (AKB10)
  CDKN1C mRNA expression level: 0.1
[7]; A549, 10 μM and 50 μM, vs DMSO, all genes but CDKN1C
  tumor suppressor mRNA expression: augmented
[7]; A549, 50 μM (AKB50)
  CDKN1C mRNA expression level: 0.9
DNMT-1 [8]; PyMT tumor cells in culture, concentration not given
  DNMT-1 mRNA level: significant decreases; also recorded: downregulated
DNMT-1 [8]; 10 μM
  DNMT-1 mRNA expression: significantly inhibited
DNMT-1 [8]; 25 μM
  DNMT-1 mRNA expression: significantly inhibited
DNMT-1 [8]; 50 μM
  DNMT-1 mRNA expression: significantly inhibited
RASSF1 promoter
  methylation of RASSF1 promoter in lungs: demethylated
RASSF1 mRNA
  RASSF1 mRNA expression in lungs: increased
